Reference: publication PMC5833010 (ACS Central Science, 2018)

Key:
AtD14-GFP fusion protein = biological target: T1, AtD14-GFP fusion protein (Arabidopsis thaliana, UniProt Q9SQR3); assay: AtD14-GFP degradation in 35S::AtD14-GFP/atd14-1 seedlings; assay type: in vivo; conditions: 1 μM (+)-GR24 alone, 24 h
T1 sequence (Q9SQR3 1-267): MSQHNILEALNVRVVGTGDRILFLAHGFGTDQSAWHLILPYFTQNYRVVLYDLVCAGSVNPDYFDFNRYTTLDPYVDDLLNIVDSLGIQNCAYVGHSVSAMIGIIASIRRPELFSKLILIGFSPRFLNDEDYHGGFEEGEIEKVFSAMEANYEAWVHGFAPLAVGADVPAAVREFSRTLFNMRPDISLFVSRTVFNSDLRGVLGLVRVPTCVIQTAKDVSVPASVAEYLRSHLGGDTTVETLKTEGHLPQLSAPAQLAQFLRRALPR

BRC1 = assay: qRT-PCR of strigolactone-responsive gene BRC1 in seedlings; assay type: in vivo, Arabidopsis; conditions: 10-day-old seedlings, 1 μM (+)-GR24 alone, 24 h
STH7 = assay: qRT-PCR of strigolactone-responsive gene STH7 in seedlings; assay type: in vivo, Arabidopsis; conditions: 10-day-old seedlings, 1 μM (+)-GR24 alone, 24 h

(+)-GR24
GFP signal in hypocotyl (AtD14-GFP) (AtD14-GFP fusion protein): striking reduction
expression of BRC1 (BRC1): increased
expression of STH7 (STH7): increased
